Source: patent publication US9765035B2 (priority 2013, dated 2017)
pIC50: −log10 of the molar value. Like-named read-outs stand apart in the source and are kept apart here.

Key:
human PRMT6 = human PRMT6 (Homo sapiens, UniProt Q96LA8); assay: biochemical
[1] = tested on: RKO cells, mono-methyl arginine; assay: RKO Methylation Assay (In Cell Western for mono-methyl arginine); type: cell-based; settings: Homo sapiens
From the text: RKO adherent cells were purchased from ATCC (American Type Culture Collection), Manassas, Va., USA. DMEM/Glutamax medium, penicillin-streptomycin, heat inactivated fetal bovine serum, 0.05% trypsin and D-PBS were purchased from Life Technologies, Grand Island, N.Y., USA. Odyssey blocking buffer, 800CW goat anti-rabbit IgG (H+L) antibody, and Licor Odyssey infrared scanner were purchased from Licor Biosciences, Lincoln, Nebr., USA. Mono-methyl arginine antibody was purchased from Cell Signaling Technology, Danvers, Mass., USA. Methanol was purchased from VWR, Franklin, Mass., USA. 10% Tween 20 was purchased from KPL, Inc., Gaithersburg, Md., USA. DRAQ5 was purchased from Biostatus Limited, Leicestershire, UK.
RKO adherent cells were maintained in growth medium (DMEM/Glutamax medium supplemented with 10% v/v heat inactivated fetal bovine serum and 100 units/mL penicillin-streptomycin) and cultured at 37° C. under 5% CO2.
Cell Treatment, in Cell Western (ICW) for Detection of Mono-Methyl Arginine and DNA Content. […] Compound (100 nL) from a 96-well source plate was added directly to 384 well cell plate. Plates were incubated at 37° C., 5% CO2 for 72 hours. After three days of incubation, plates were brought to room temperature outside of the incubator for ten minutes and blotted on paper towels to remove cell media. 50 μL of ice cold 100% methanol was added directly to each well and incubated for 30 min at room temperature. After 30 min, plates were transferred to a Biotek EL406 plate washer and washed 2 times with 100 μL per well of wash buffer (1×PBS). Next 60 μL per well of Odyssey blocking buffer (Odyssey Buffer with 0.1% Tween 20 (v/v)) were added to each plate and incubated 1 hour at room temperature. Blocking buffer was removed and 20 μL per well of primary antibody was added (mono-methyl arginine diluted 1:200 in Odyssey buffer with 0.1% Tween 20 (v/v)) and plates were incubated overnight (16 hours) at 4° C. Plates were washed 5 times with 100 μL per well of wash buffer. […] The plates were washed 5 times with 100 μL per well wash buffer then 2 times with 100 μL per well of water. Plates were allowed to dry at room temperature then imaged on the Licor Odyssey machine which measures integrated intensity at 700 nm and 800 nm wavelengths. Both 700 and 800 channels were scanned.
Calculations: First, the ratio for each well was determined by:
Each plate included fourteen control wells of DMSO only treatment (minimum activation) as well as fourteen control wells for maximum activation treated with 20 μM of a reference compound. The average of the ratio values for each control type was calculated and used to determine the percent activation for each test well in the plate. Reference compound was serially diluted three-fold in DMSO for a total of nine test concentrations, beginning at 20 μM. Percent activation was determined and EC30 curves were generated using triplicate wells per concentration of compound.

[2] = biochemical evaluation, peptide substrate, read-out: PRMT6 IC50
[3] = single experiment or average of multiple experiments, read-out: PRMT6 biochemical evaluation (numerical)
[4] = RKO, 72 h, read-out: RGG ICW EC30
[5] = In Cell Western EC30, RKO cells, 72 hours, single experiment or average of multiple experiments, read-out: RGG ICW
[6] = In Cell Western, RKO cells, 72 hours, read-out: RGG ICW EC30

Chain of human PRMT6 (Q96LA8 with tags, fused parts or gaps): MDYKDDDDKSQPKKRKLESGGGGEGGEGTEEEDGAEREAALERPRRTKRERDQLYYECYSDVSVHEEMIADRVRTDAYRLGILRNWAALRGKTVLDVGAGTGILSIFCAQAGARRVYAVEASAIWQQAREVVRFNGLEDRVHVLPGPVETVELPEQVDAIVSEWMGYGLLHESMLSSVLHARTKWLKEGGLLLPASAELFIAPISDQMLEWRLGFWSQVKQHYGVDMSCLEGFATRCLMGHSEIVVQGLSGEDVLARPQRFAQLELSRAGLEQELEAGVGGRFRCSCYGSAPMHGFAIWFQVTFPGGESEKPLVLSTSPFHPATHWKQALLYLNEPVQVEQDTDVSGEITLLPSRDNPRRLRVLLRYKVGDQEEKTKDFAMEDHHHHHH

| Compound | pIC50 (human PRMT6; [2]) | pIC50 (human PRMT6; [3]) | EC30 ([1]; RKO, 72 h, read-out: RGG ICW) [µM] | EC30 [1, 4] [µM] | EC30 [1, 5] [µM] | EC30 [1, 6] [µM] |
| --- | --- | --- | --- | --- | --- | --- |
| CNCCN(C)Cc1n[nH]c2ccc(OC3CCOCC3)cc12 [Compound 29, N^1,N^2-dimethyl-N^1-((5-((tetrahydro-2H-pyran-4-yl)oxy)-1H-indazol-3-yl)methyl)ethane-1,2-diamine] | 6.00 to 7.00 | 6.75 | 5.04 | 3.01 to 12 |  |  |
| CNCCN(C)Cc1n[nH]c2ccc(Oc3ccccc3Cl)cc12 [Compound 30] | 6.00 to 7.00 | 6.88 | 7.2 | 3.01 to 12 |  |  |
| CNCCN(C)Cc1n[nH]c2cccc(OCCC(C)C)c12 [Compound 31] | 5.52 to 6.00 | 6.87 |  |  | 8.24 | 3.01 to 12 |
| CNCCN(C)Cc1nn(C)c2ccc(OCc3ccc(C#N)cc3)cc12 [Compound 32] | > 7.00 | 6.81 | 8.9 | 3.01 to 12 |  |  |
| CNCCN(C)Cc1n[nH]c2ccc(OCc3ccn(CC(C)C)n3)cc12 [Compound 33] | > 7.00 | 5.96 |  |  | 9.06 | 3.01 to 12 |
| CNCCN(C)Cc1c2cc(OCc3ccc(C#N)cc3)ccc2nn1C(C)C [Compound 34] | 5.00 to 5.52 | 7.83 | > 20 | > 12 |  |  |
| CNCCN(C)Cc1n[nH]c2ccc(OC)cc12 [Compound 35] | 5.00 to 5.52 | 7.45 |  |  | > 20 | > 12 |
| CNCCN(C)Cc1n[nH]c2ccc(O)cc12 [Compound 36, 3-((methyl(2-(methylamino)ethyl)amino)methyl)-1H-indazol-5-ol] | 5.52 to 6.00 | 5.18 |  |  | > 20 | > 12 |
| CNCCN(C)Cc1n[nH]c2ccc(Oc3ccc(C#N)cc3)cc12 [Compound 37] | 6.00 to 7.00 | 5.31 |  |  | > 20 | > 12 |
| CNCCN(C)Cc1nn(C2CCN(C(C)=O)CC2)c2ccc(OCc3ccc(C#N)cc3)cc12 [Compound 38] | 6.00 to 7.00 | 5.73 |  |  | > 20 | > 12 |
| CNCCN(C)Cc1n[nH]c2ccc(Oc3ccc(C(F)(F)F)cc3)cc12 [Compound 39] | 6.00 to 7.00 | 6.16 | > 20 | > 12 |  |  |
